Data reported in patent publication US11608323B2 (SYNGENTA LIMITED, priority 2013, dated 2023).

How the values were obtained:
Format in all cases: in vivo
[1] = system: ZEAMX; assay: Post-emergence herbicidal activity, glasshouse pot test; settings: Zea mays; application post-emergence; rate 1000 g/Ha; evaluated after 13 days
Experimental: (§1) Seeds of a variety of test species were sown in standard soil in pots. After 8 days cultivation (post-emergence) under controlled conditions in a glasshouse (at 24/16° C., day/night; 14 hours light; 65% humidity), the plants were sprayed with an aqueous spray solution derived from the formulation of the technical active ingredient in acetone/water (50:50) solution containing 0.5% Tween 20 (polyoxyethelyene sorbitan monolaurate, CAS RN 9005-64-5). The test plants were then grown in a glasshouse under controlled conditions (at 24/16° C., day/night; 14 hours light; 65% humidity) and watered twice daily. After 13 days, the test was evaluated (5=total damage to plant; 0=no damage to plant).

[2] = system: ECHCG; assay: as above; settings: Echinochloa crus-galli; application post-emergence; rate 1000 g/Ha; evaluated after 13 days
Experimental: as §1

[3] = system: ABUTH; assay: as above; settings: Abutilon theophrasti; application post-emergence; rate 1000 g/Ha; evaluated after 13 days
Experimental: as §1

[4] = system: AMARE; assay: as above; settings: Amaranthus retroflexus; application post-emergence; rate 1000 g/Ha; evaluated after 13 days
Experimental: as §1

[5] = system: SETFA; assay: as above; settings: Setaria faberi; application post-emergence; rate 1000 g/Ha; evaluated after 13 days
Experimental: as §1

[6] = system: ZEAMX; assay: Pre-emergence herbicidal activity, glasshouse pot test; settings: rate 1000 g/Ha, evaluated after 13 days, scale 0-5
Experimental: as §1, with “After” for “After 8 days”, “for one day (pre-emergence)” for “(post-emergence)”

[7] = system: ECHCG; assay: as above; settings: rate 1000 g/Ha, evaluated after 13 days, scale 0-5
Experimental: as §1, with “After” for “After 8 days”, “for one day (pre-emergence)” for “(post-emergence)”

[8] = system: ABUTH; assay: as above; settings: rate 1000 g/Ha, evaluated after 13 days, scale 0-5
Experimental: as §1, with “After” for “After 8 days”, “for one day (pre-emergence)” for “(post-emergence)”

[9] = system: AMARE; assay: as above; settings: rate 1000 g/Ha, evaluated after 13 days, scale 0-5
Experimental: as §1, with “After” for “After 8 days”, “for one day (pre-emergence)” for “(post-emergence)”

[10] = system: SETFA; assay: as above; settings: rate 1000 g/Ha, evaluated after 13 days, scale 0-5
Experimental: as §1, with “After” for “After 8 days”, “for one day (pre-emergence)” for “(post-emergence)”

Row | Structure (SMILES) | Post-emergence herbicidal activity ZEAMX (damage score 0-5) [1] | Post-emergence herbicidal activity ECHCG (damage score 0-5) [2] | Post-emergence herbicidal activity ABUTH (damage score 0-5) [3] | Post-emergence herbicidal activity AMARE (damage score 0-5) [4] | Post-emergence herbicidal activity SETFA (damage score 0-5) [5] | ZEAMX damage score, application pre-emergence [6] | ECHCG damage score, application pre-emergence [7] | ABUTH damage score, application pre-emergence [8] | AMARE damage score, application pre-emergence [9] | SETFA damage score, application pre-emergence [10]
1 | CN1C(=O)N(c2cc(C(F)(F)F)ccn2)C(O)C1CC(F)(F)F (stereo not drawn) [Compound A68] | 0 | 0 | 0 | 0 | 0 | 0 | 0 | 0 | 0 | 0
2 | CCOC1C(O)N(c2cc(Cl)c(C(=O)NC(C)(C)C)cn2)C(=O)N1C (stereo not drawn) [Compound A69] | 3 | 5 | 5 | 4 | 4 | 2 | 5 | 5 | 5 | 5
3 | CON1C(=O)N(c2cc(Cl)c(C(=O)NC(C)(C)C)cn2)C(O)C1C (stereo not drawn) [Compound A70] | 5 | 5 | 5 | 5 | 5 | 3 | 5 | 5 | 5 | 5
4 | CC1C(O)N(c2cc(Cl)c(C(=O)NC(C)(C)C)cn2)C(=O)N1C (stereo not drawn) [Compound A71] | 4 | 5 | 5 | 5 | 5 | 3 | 5 | 5 | 5 | 0
5 | CON1C(=O)N(c2cc(C(F)(F)C(F)(F)F)ccn2)C(O)C1C (stereo not drawn) [Compound A73] | 3 | 5 | 5 | 5 | 5 | 3 | 4 | 5 | 5 | 5
6 | CC1C(O)N(c2ccc(C(F)(F)F)cn2)C(=O)N1C (stereo not drawn) [Compound A74] | 3 | 4 | 5 | 5 | 5 | 3 | 4 | 5 | 5 | 4
7 | O=C1N2CCOC2C(O)N1c1cc(C(F)(F)F)ccn1 (stereo not drawn) [Compound A75] | 2 | 5 | 5 | 5 | 5 | 2 | 4 | 5 | 5 | 4
8 | COCN1C(=O)N(c2cc(C(F)(F)F)ccn2)C(O)C1C (stereo not drawn) [Compound A76] | 1 | 4 | 5 | 5 | 4 | 2 | 3 | 5 | 5 | 4
9 | COC[C@@H]1C(O)N(c2cc(C(F)(F)F)ccn2)C(=O)N1C (stereo partly drawn) [Compound A77] | 5 | 5 | 5 | 5 | 5 | 3 | 5 | 5 | 5 | 5
10 | COC[C@H]1C(O)N(c2cc(C(F)(F)F)ccn2)C(=O)N1C (stereo partly drawn) [Compound A78] | 0 | 5 | 5 | 5 | 3 | 1 | 4 | 5 | 5 | 3
11 | CON1C(=O)N(c2cc(C(F)(F)F)c(C)cn2)C(O)[C@@H]1C (stereo partly drawn) [Compound A79] | 4 | 5 | 5 | 5 | 5 | 2 | 5 | 5 | 5 | 5
12 | CON1C(=O)N(c2ccc(C(F)(F)F)cn2)C(O)C1C (stereo not drawn) [Compound A80] | 4 | 5 | 5 | 5 | 5 | 2 | 5 | 5 | 5 | 4
13 | CN1C(=O)N(c2ccc(C(F)(F)F)cn2)C(O)C1O (stereo not drawn) [Compound A81] | 0 | 2 | 4 | 4 | 2 | 0 | 0 | 2 | 3 | 2
14 | CCOC1C(O)N(c2cc(C(F)(F)C(F)(F)F)ccn2)C(=O)N1C (stereo not drawn) [Compound A82] | 2 | 4 | 5 | 5 | 4 | 2 | 3 | 5 | 5 | 3
15 | CCOC1C(O)N(c2ccc(C(F)(F)F)cn2)C(=O)N1C (stereo not drawn) [Compound A83] | 1 | 1 | 5 | 5 | 4 | 1 | 4 | 5 | 5 | 4
